In brackets after ≈: the same amount, converted by molar mass. Several values for one entry are separate records, joined by “and”; a condition that tells them apart may be missing. Identical values can stand only once.
How the values were obtained:
[1] = test system: vancomycin-resistant Enterococcus; test: Antimicrobial testing; assay type: cell-based; conditions: for MIC: Enterococcus
[2] = test system: S. pneumonia ATCC 49619; test: Antimicrobial testing; assay type: cell-based
[3] = test system: B. anthracis 34f2; assay type: cell-based; conditions: comparable to commercial antibiotic erythromycin
[4] = test system: E. coli TolC; assay type: cell-based
[5] = biological target: TamL enzyme (Streptomyces sp. 307-9, UniProt D3Y1I2); test: Isothermal titration calorimetry with TamL
[6] = biological target: TamI WT and mutants; test: Substrate-induced heme spin shift binding, several TamI P450s
[7] = test system: TamI WT and mutants; conditions: range over WT and all variants tested
[8] = test system: TamI WT; test: Total turnover number, TamI WT; conditions: compound as substrate
[9] = biological target: TamI WT; test: Substrate-induced heme spin shift binding, TamI WT; conditions: TamI WT (parent enzyme)
[10] = test system: CC1=CC[C@H]2O[C@]1(C)O[C@H]([C@H](C)/C=C(C)/C=C/C(O)=C1/C(=O)CNC1=O)[C@H]2C; test: purified protein, by the assay type
[11] = test system: TamI biocatalysts; test: In vitro analytical enzymatic reactions with TamI biocatalysts; assay type: biochemical, Streptomyces sp. 307-9; conditions: compound as substrate
[12] = substrate: CC(/C=C/C(O)=C1/C(=O)CNC1=O)=C\[C@@H](C)[C@H]1O[C@@]2(C)O[C@H](C(=O)[C@@H]3O[C@@]32C)[C@@H]1C; test: purified protein, by the assay type; conditions: other: compound as substrate; P450 TamI WT
[13] = substrate: CC(C=CC(O)=C1C(=O)CNC1=O)=CC(C)C1OC2(C)OC(C(O)C=C2C)C1C; test: purified protein, by the assay type; conditions: other: compound as substrate; P450 TamI WT
[14] = substrate: CC1=CC(=O)[C@H]2O[C@]1(C)O[C@H]([C@H](C)/C=C(C)/C=C/C(O)=C1/C(=O)CNC1=O)[C@H]2C; test: purified protein, by the assay type; conditions: other: compound as substrate; P450 TamI WT

O=C(O)c1cn(C2CC2)c2cc(N3CCNCC3)c(F)cc2c1=O [ciprofloxacin, reference compound]
MIC [1]: > 100 µM
MIC [2]: 1.56 µM (≈ 0.517 µg/mL)

CC1=CC[C@H]2O[C@]1(C)O[C@H]([C@H](C)/C=C(C)/C=C/C(O)=C1/C(=O)CNC1=O)[C@H]2C [compound 1, tirandamycin C]
activity against B. anthracis 34f2 (in words) [3]: strong activity
MIC [1]: 25 µM (≈ 9.69 µg/mL)
MIC [2]: 12.5 µM (≈ 4.84 µg/mL)
activity against S. pneumonia ATCC 49619 (in words) [2]: enhanced activity
activity against E. coli TolC (in words) [4]: relatively weak activity

CC(C=CC(O)=C1C(=O)CNC1=O)=CC(C)C1OC2(C)OC(C(O)C=C2C)C1C (stereo not drawn) [compound 2, tirandamycin E]
MIC [1]: > 100 µM
MIC [2]: > 100 µM
Kd [5]: 2.26 µM
spin shift ([6]; the other P450s (than L101A_L295I) including the parent enzyme): no spin shift was observed

CC1=CC(=O)[C@H]2O[C@]1(C)O[C@H]([C@H](C)/C=C(C)/C=C/C(O)=C1/C(=O)CNC1=O)[C@H]2C [compound 3, tirandamycin D]
activity against B. anthracis 34f2 (in words) [3]: strong activity
MIC [1]: > 100 µM
MIC [2]: 12.5 µM (≈ 5.02 µg/mL)
activity against S. pneumonia ATCC 49619 (in words) [2]: enhanced activity
TTN (mol substrate consumed/mol P450) [7]: 313–340
Kd ([6]; heme spin shift, range over WT and all variants tested): 6.89 to 8.32 µM

CC(/C=C/C(O)=C1/C(=O)CNC1=O)=C\[C@@H](C)[C@H]1O[C@@]2(C)O[C@H](C(=O)[C@@H]3O[C@@]32C)[C@@H]1C [compound 4, Tirandamycin A]
activity against VRE (in words) [1]: strongest activity
MIC [1]: 6.25 µM (≈ 2.61 µg/mL)
MIC [2]: 25 µM (≈ 10.4 µg/mL)
TTN (mol substrate consumed/mol P450) [8]: 143
Kd [9]: no shift observed

CC[C@H]1OC(=O)[C@H](C)[C@@H](O[C@H]2C[C@@](C)(OC)[C@@H](O)[C@H](C)O2)[C@H](C)[C@@H](O[C@@H]2O[C@H](C)C[C@H](N(C)C)[C@H]2O)[C@](C)(O)C[C@@H](C)C(=O)[C@H](C)[C@@H](O)[C@]1(C)O [erythromycin, reference compound]
MIC [1]: 3.13 µM (≈ 2.3 µg/mL)
MIC [2]: 0.195 µM (≈ 0.143 µg/mL)

CNC(=O)[C@@H](C)[C@H]1C(=O)/C(=C(O)/C=C/C(C)=C/[C@@H](C)[C@H]2O[C@@]3(C)O[C@H](C=C[C@@]34CO4)[C@@H]2C)C(=O)N1[C@@H]1CC[C@H](O)[C@H](C)O1 [streptolydigin, reference compound]
MIC [1]: > 100 µM
MIC [2]: > 100 µM

P450 TamI WT (Streptomyces sp. 307-9)
Km [10]: 16.0 ± 2.6 µM
kcat [10]: 0.497 ± 0.0317 s⁻¹
kcat/Km [10]: 31200 M⁻¹ s⁻¹

tirandamycin O’ [compound 10]
oxidative activity / product formation with TamI biocatalysts [11]: failed to yield products

B1: P450 TamI WT (Streptomyces sp. 307-9) (protein)
chain: MPMLQDSVPLELDDAFMQDPHSVYARLNAEGSAHRVMMPPGVPVCGGLPVWLITGYEEVRSALADPRLSTDLNRTDRLFAQNEPDRNKRGAFSSALATHMLHSDPPDHTRLRKLVNKAFTSRAIEKLRPEIEQITGELLAALPDEDPVDLLDAFAFPLPIRVICLLLGVPLEEQENFKSWSKALVSGDSPAATAAASTAMIEYLGDLIERKRRTPTDDVLAALVSARDVDDRLTETELVSMAFLLFIGGHETTVNTLGNGTLHLMRNLDQWEALRQDRSLLPGAVEEFLRLESPLKHATFRCATEDLRIGDTAIPAGDFVLLALASANRDPERFGDPHTLDVRRPTGGHVAFGHGIHYCLGAPLARMEAQVAFGVLLDTFPAMRLAVDPEDMRWRTSTLIRGLHSLPVRLNRP
Km [12]: 8.2 ± 1.0 µM
kcat [12]: 0.0006 ± 1.67e-05 s⁻¹
kcat/Km [12]: 67 M⁻¹ s⁻¹ and 73.3 M⁻¹ s⁻¹
Km [13]: 108.5 ± 25.9 µM
kcat [13]: 0.000667 ± 0.000167 s⁻¹
kcat/Km [13]: 5 M⁻¹ s⁻¹
Km [14]: 36.5 ± 7.1 µM
kcat [14]: 0.113 ± 0.00833 s⁻¹
kcat/Km [14]: 3170 M⁻¹ s⁻¹

From article PMC8739753 (ACS catalysis, 2021)
